One experiment addresses T1, NAMPT (Homo sapiens, UniProt P43490).
T1 construct: His tag; host or cells: E. coli
Description: Biochemical inhibition assay: NAMPT enzymatic reaction, NMN quantified by mass spectrometry. The note with it: NAMPT enzymatic assay; read-out: Biochem IC50. The method, boiled down: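 Inhibition of E. coli-expressed His-tagged human NAMPT, measured as NMN formation by mass spectrometry after a 30 min room-temperature reaction containing 1 μM NAM, 100 μM PRPP and 2.5 mM ATP.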

The test system of another experiment is A2780 cells. Kind of experiment: In-vitro cell proliferation assay (SRB), A2780 cells. It is filed as cell-based. The settings on record: Homo sapiens, A2780, 72 h, A2780 cells, 72 hours, SRB; read-out: A2780 IC50. An outline of the steps:
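Read-out is SRB absorbance at 570 nm on TCA-fixed cells after 72 hours of compound treatment at 37° C. in 5% CO2. Background from a media-only plate is subtracted, and % inhibition is interpolated between two tested concentrations.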

IC50 data for 31 compounds are collected here from patent publication US12336981B2, “Compounds and compositions for the inhibition of NAMPT” (Valo Health, Inc., priority 2010, dated 2025).

pIC50: −log10 of the molar value.

By pIC50 is commonly meant the negative decadic logarithm of the IC50, by convention in mol/L.

T1 sequence (P43490 whole entry): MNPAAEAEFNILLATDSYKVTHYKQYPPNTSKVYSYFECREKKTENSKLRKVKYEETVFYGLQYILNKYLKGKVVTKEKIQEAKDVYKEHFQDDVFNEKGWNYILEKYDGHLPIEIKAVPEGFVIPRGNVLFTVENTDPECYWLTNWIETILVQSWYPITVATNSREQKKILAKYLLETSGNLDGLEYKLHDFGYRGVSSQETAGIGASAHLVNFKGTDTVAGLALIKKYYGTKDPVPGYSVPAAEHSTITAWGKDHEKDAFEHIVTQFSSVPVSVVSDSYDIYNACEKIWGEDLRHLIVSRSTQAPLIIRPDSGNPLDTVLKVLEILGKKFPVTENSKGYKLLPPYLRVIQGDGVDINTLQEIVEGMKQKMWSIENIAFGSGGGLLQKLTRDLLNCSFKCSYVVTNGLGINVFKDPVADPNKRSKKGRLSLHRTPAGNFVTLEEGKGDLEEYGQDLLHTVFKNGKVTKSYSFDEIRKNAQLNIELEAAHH

Regarding `CN(C)c1ncc(S(=O)(=O)c2ccc(CNC(=O)c3cnc4[nH]ncc4c3)cc2)cn1` [N-({4-[2-(dimethylamino)pyrimidine-5-sulfonyl]phenyl}methyl)-1H-pyrazolo[3,4-b]pyridine-5-carboxamide], the pIC50 at NAMPT is 8.10; with A2780 cells, 8.23.
As to `CN(C)c1ncc(S(=O)(=O)c2ccc(CNC(=O)c3cc4cnccc4[nH]3)cc2)cn1` [N-({4-[2-(dimethylamino)pyrimidine-5-sulfonyl]phenyl}methyl)-1H-pyrrolo[3,2-c]pyridine-2-carboxamide], the pIC50 on NAMPT was 7.72; in the experiment with A2780 cells it was 8.46.
In the case of `CN(C)c1ncc(S(=O)(=O)c2ccc(CNC(=O)c3cc4ccncc4o3)cc2)cn1` [N-({4-[2-(dimethylamino)pyrimidine-5-sulfonyl]phenyl}methyl)furo[2,3-c]pyridine-2-carboxamide], the pIC50 at NAMPT is 7.59; in the experiment on A2780 cells, 7.92.
Taken in the same sequence, the figures for `CN(C)c1ncc(S(=O)(=O)c2ccc(CNC(=O)c3cc4ccncc4s3)cc2)cn1` [N-({4-[2-(dimethylamino)pyrimidine-5-sulfonyl]phenyl}methyl)thieno[2,3-c]pyridine-2-carboxamide] were 8.10 and 8.77.
`O=C(NCc1ccc(S(=O)(=O)c2cccnc2N2CCOCC2)cc1)c1cc2ccncc2o1` [N-({4-[2-(morpholin-4-yl)pyridine-3-sulfonyl]phenyl}methyl)furo[2,3-c]pyridine-2-carboxamide]: the pIC50 at NAMPT was 7.49; in the experiment on A2780 cells it was 7.22.
As to `O=C(NCc1ccc(S(=O)(=O)c2cccnc2N2CCOCC2)cc1)c1cnc2nccn2c1` [N-({4-[2-(morpholin-4-yl)pyridine-3-sulfonyl]phenyl}methyl)imidazo[1,2-a]pyrimidine-6-carboxamide], the pIC50 at NAMPT is 7.51; in the experiment on A2780 cells it was 6.00 to 7.00.
On to `O=C(NCc1ccc(S(=O)(=O)c2cnc(N3CCCC3)s2)cc1)c1cnc2[nH]ncc2c1` [N-({4-[2-(pyrrolidin-1-yl)-1,3-thiazole-5-sulfonyl]phenyl}methyl)-1H-pyrazolo[3,4-b]pyridine-5-carboxamide], for which the figures for the pIC50 on NAMPT and with A2780 cells were 8.55 and 9.05, respectively.
With `O=C(NCc1ccc(S(=O)(=O)c2cnc(N3CCCC3)s2)cc1)c1cc2cnccc2[nH]1` [N-({4-[2-(pyrrolidin-1-yl)-1,3-thiazole-5-sulfonyl]phenyl}methyl)-1H-pyrrolo[3,2-c]pyridine-2-carboxamide], the pIC50 at NAMPT was 8.22; in the experiment on A2780 cells, 9.30.
As to `O=C(NCc1ccc(S(=O)(=O)c2cnc(N3CCCC3)s2)cc1)c1ccc2nccn2c1` [N-({4-[2-(pyrrolidin-1-yl)-1,3-thiazole-5-sulfonyl]phenyl}methyl)imidazo[1,2-a]pyridine-6-carboxamide], the negative logarithm of the IC50 (pIC50) at NAMPT was 8.62; in the experiment with A2780 cells, 9.40.
On the same counts, the results for `O=C(NCc1ccc(S(=O)(=O)c2cnc(N3CCCC3)s2)cc1)c1cnc2nccn2c1` [N-({4-[2-(pyrrolidin-1-yl)-1,3-thiazole-5-sulfonyl]phenyl}methyl)imidazo[1,2-a]pyrimidine-6-carboxamide] are 8.54 and 9.05.
Turning to `O=C(NCc1ccc(S(=O)(=O)c2cnc(N3CCCC3)s2)cc1)c1cc2ccncc2s1` [N-({4-[2-(pyrrolidin-1-yl)-1,3-thiazole-5-sulfonyl]phenyl}methyl)thieno[2,3-c]pyridine-2-carboxamide], the figures for the pIC50 at NAMPT and with A2780 cells were 8.82 and 9.15, respectively.
Taken in the same sequence, the figures for `O=C(NCc1ccc(S(=O)(=O)c2ccc3nc(C(F)(F)F)cn3c2)cc1)c1cnc2[nH]ncc2c1` [N-({4-[2-(trifluoromethyl)imidazo[1,2-a]pyridine-6-sulfonyl]phenyl}methyl)-1H-pyrazolo[3,4-b]pyridine-5-carboxamide] were 7.30 and 7.48.
Consider `O=C(NCc1ccc(S(=O)(=O)c2ccc3nc(C(F)(F)F)cn3c2)cc1)c1cc2ccncc2o1` [N-({4-[2-(trifluoromethyl)imidazo[1,2-a]pyridine-6-sulfonyl]phenyl}methyl)furo[2,3-c]pyridine-2-carboxamide], for which the figures for the pIC50 on NAMPT and in the experiment with A2780 cells were 7.67 and 7.92, respectively.
In the case of `O=C(NCc1ccc(S(=O)(=O)c2ccc3nc(C(F)(F)F)cn3c2)cc1)c1ccc2nccn2c1` [N-({4-[2-(trifluoromethyl)imidazo[1,2-a]pyridine-6-sulfonyl]phenyl}methyl)imidazo[1,2-a]pyridine-6-carboxamide], the pIC50 on NAMPT is 7.44; with A2780 cells, 8.15.
In the case of `O=C(NCc1ccc(S(=O)(=O)c2ccc3nc(C(F)(F)F)cn3c2)cc1)c1cc2ccncc2s1` [N-({4-[2-(trifluoromethyl)imidazo[1,2-a]pyridine-6-sulfonyl]phenyl}methyl)thieno[2,3-c]pyridine-2-carboxamide], the pIC50 on NAMPT was 8.51; in the experiment on A2780 cells, 8.41.
`O=C(NCc1ccc(S(=O)(=O)c2cccnc2C(F)(F)F)cc1)c1cc2ccncc2o1` [N-({4-[2-(trifluoromethyl)pyridine-3-sulfonyl]phenyl}methyl)furo[2,3-c]pyridine-2-carboxamide]: the pIC50 is 7.52 at NAMPT and 7.55 with A2780 cells.
For `O=C(NCc1ccc(S(=O)(=O)c2ccnc(N3CCOCC3)c2Cl)cc1)c1cc2ccncc2s1` [N-({4-[3-chloro-2-(morpholin-4-yl)pyridine-4-sulfonyl]phenyl}methyl)thieno[2,3-c]pyridine-2-carboxamide], the results for the pIC50 at NAMPT and with A2780 cells were 8.07 and 8.74, respectively.
As to `O=C(NCc1ccc(S(=O)(=O)c2cc(C(F)(F)F)ccn2)cc1)c1cnc2[nH]ncc2c1` [N-({4-[4-(trifluoromethyl)pyridine-2-sulfonyl]phenyl}methyl)-1H-pyrazolo[3,4-b]pyridine-5-carboxamide], the pIC50 is 7.55 on NAMPT and 7.93 in the experiment on A2780 cells.
In the case of `O=C(NCc1ccc(S(=O)(=O)c2cc(C(F)(F)F)ccn2)cc1)c1cc2ccncc2o1` [N-({4-[4-(trifluoromethyl)pyridine-2-sulfonyl]phenyl}methyl)furo[2,3-c]pyridine-2-carboxamide], the figures for the pIC50 at NAMPT and with A2780 cells were 7.86 and 8.21, respectively.
With `O=C(NCc1ccc(S(=O)(=O)c2cc(C(F)(F)F)ccn2)cc1)c1cnc2nccn2c1` [N-({4-[4-(trifluoromethyl)pyridine-2-sulfonyl]phenyl}methyl)imidazo[1,2-a]pyrimidine-6-carboxamide], the pIC50 on NAMPT was 8.06; with A2780 cells, 7.89.
On the same counts, the results for `O=C(NCc1ccc(S(=O)(=O)c2cc(C(F)(F)F)ccn2)cc1)c1cc2ccncc2s1` [N-({4-[4-(trifluoromethyl)pyridine-2-sulfonyl]phenyl}methyl)thieno[2,3-c]pyridine-2-carboxamide] are 8.44 and 8.52.
As to `CN(C)c1cnc(S(=O)(=O)c2ccc(CNC(=O)c3ccc4nccn4c3)cc2)cn1` [N-({4-[5-(dimethylamino)pyrazine-2-sulfonyl]phenyl}methyl)imidazo[1,2-a]pyridine-6-carboxamide], the pIC50 on NAMPT is 7.80; in the experiment with A2780 cells it was 8.44.
`O=C(NCc1ccc(S(=O)(=O)c2cncc(N3CCCC3)c2)cc1)c1ccc2ncsc2c1` [N-({4-[5-(pyrrolidin-1-yl)pyridine-3-sulfonyl]phenyl}methyl)-1,3-benzothiazole-6-carboxamide]: the negative-log IC50 (pIC50) was 8.04 on NAMPT and 6.00 to 7.00 in the experiment with A2780 cells.
As for `O=C(NCc1ccc(S(=O)(=O)c2cncc(N3CCCC3)c2)cc1)c1cnc2[nH]ncc2c1` [N-({4-[5-(pyrrolidin-1-yl)pyridine-3-sulfonyl]phenyl}methyl)-1H-pyrazolo[3,4-b]pyridine-5-carboxamide], the values for the pIC50 on NAMPT and with A2780 cells were 7.75 and 8.40, respectively.
Take `O=C(NCc1ccc(S(=O)(=O)c2cncc(N3CCCC3)c2)cc1)c1cc2cnccc2[nH]1` [N-({4-[5-(pyrrolidin-1-yl)pyridine-3-sulfonyl]phenyl}methyl)-1H-pyrrolo[3,2-c]pyridine-2-carboxamide]: the pIC50 on NAMPT was 7.86; in the experiment with A2780 cells, 8.70.
On to `O=C(NCc1ccc(S(=O)(=O)c2cncc(N3CCCC3)c2)cc1)c1cc2ccncc2o1` [N-({4-[5-(pyrrolidin-1-yl)pyridine-3-sulfonyl]phenyl}methyl)furo[2,3-c]pyridine-2-carboxamide], for which the pIC50 at NAMPT is 7.64; with A2780 cells, 8.31.
With `O=C(NCc1ccc(S(=O)(=O)c2cncc(N3CCCC3)c2)cc1)c1ccc2nccn2c1` [N-({4-[5-(pyrrolidin-1-yl)pyridine-3-sulfonyl]phenyl}methyl)imidazo[1,2-a]pyridine-6-carboxamide], the negative logarithm of the IC50 (pIC50) was 8.40 at NAMPT and 9.30 in the experiment with A2780 cells.
With `O=C(NCc1ccc(S(=O)(=O)c2ccc(C(F)(F)F)cn2)cc1)c1cnc2[nH]ncc2c1` [N-({4-[5-(trifluoromethyl)pyridine-2-sulfonyl]phenyl}methyl)-1H-pyrazolo[3,4-b]pyridine-5-carboxamide], the pIC50 at NAMPT and with A2780 cells was 6.00 to 7.00 each time.
For `O=C(NCc1ccc(S(=O)(=O)c2ccc(C(F)(F)F)cn2)cc1)c1cc2ccncc2o1` [N-({4-[5-(trifluoromethyl)pyridine-2-sulfonyl]phenyl}methyl)furo[2,3-c]pyridine-2-carboxamide], the figures for the pIC50 on NAMPT and in the experiment on A2780 cells were 7.43 and 6.00 to 7.00, respectively.
`O=C(NCc1ccc(S(=O)(=O)c2ccc(C(F)(F)F)cn2)cc1)c1ccc2nccn2c1` [N-({4-[5-(trifluoromethyl)pyridine-2-sulfonyl]phenyl}methyl)imidazo[1,2-a]pyridine-6-carboxamide]: the pIC50 was 7.33 at NAMPT and 7.49 in the experiment with A2780 cells.
Take `O=C(NCc1ccc(S(=O)(=O)c2ccc(C(F)(F)F)cn2)cc1)c1cnc2nccn2c1` [N-({4-[5-(trifluoromethyl)pyridine-2-sulfonyl]phenyl}methyl)imidazo[1,2-a]pyrimidine-6-carboxamide]: the pIC50 is 8.23 on NAMPT and 7.15 in the experiment with A2780 cells.
